From patent publication US11098056B2, “UDP glycosyltransferase inhibitors and methods of use” (GENZYME CORPORATION, priority 2018, dated 2021)
Structures can show the parent of a compound that is named as a salt.

Molecular target: T1, UGT8 (Homo sapiens, UniProt Q16880)
T1 construct: host or cells: OE19 cells
T1 sequence (Q16880 21-541): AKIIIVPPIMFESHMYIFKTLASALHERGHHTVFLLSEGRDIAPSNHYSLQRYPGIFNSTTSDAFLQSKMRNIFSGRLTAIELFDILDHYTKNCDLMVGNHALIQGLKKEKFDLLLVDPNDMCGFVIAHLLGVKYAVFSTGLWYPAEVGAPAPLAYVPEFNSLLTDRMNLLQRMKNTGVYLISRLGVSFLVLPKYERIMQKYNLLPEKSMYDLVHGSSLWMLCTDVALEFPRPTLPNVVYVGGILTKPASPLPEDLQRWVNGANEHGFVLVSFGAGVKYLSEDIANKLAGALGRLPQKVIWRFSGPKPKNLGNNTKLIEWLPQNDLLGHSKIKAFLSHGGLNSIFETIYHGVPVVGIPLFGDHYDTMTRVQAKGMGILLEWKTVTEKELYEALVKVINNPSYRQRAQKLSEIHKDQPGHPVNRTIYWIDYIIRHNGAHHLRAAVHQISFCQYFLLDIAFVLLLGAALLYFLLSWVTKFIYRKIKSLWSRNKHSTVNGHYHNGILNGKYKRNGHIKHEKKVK
Test: In vitro sulfatide (SFT) synthesis inhibition in OE19 cells, LC-MS/MS readout
Assay type: cell-based
Settings: 72 hr, sulfatide by LC-MS/MS, read-out: Potency range (IC50, In-vitro SFT)
Procedure: For medium throughput screening, library compounds were dispensed into CellBIND 384 well plates to a final concentration of 10 μM. OE19 cells (Sigma) were grown in to 70-90% confluency in RPMI 1640+L-glutamine and […]; were trypsinized to achieve suspension and were aliquoted at 2,500 cells/well, total well volume 50 μl. Plates were incubated 72 hr at 37° C. in 5% CO2; supernatant was removed and plates were dried, heat-sealed and stored at −20° C. until analysis.
For IC50 determinations, the same procedure was followed except that test compounds were added to the plate as dose-downs in triplicate to yield concentration response curves.
Mass Spectrometer Analysis of Sulfatide (SFT):
Assay plates were thawed and 85 μl mobile phase B (5 mM ammonium formate^+0.2% formic acid in 50:50 methanol:acetonitrile). Fifteen μl 20 ng/ml C17 SFT in mobile phase B was added as an internal standard.
SFT was analyzed using an Applied Biosystems API-4000 triple quad mass spectrometer interfaced to a Thermo Scientific Multiplex system (LX-4) equipped with four pumps. Chromatography of OE19 cell samples or 2B5-mouse cells treated with compounds was performed using a Waters Acquity UPLC BEH C8 2.1×50 mm column with 1.7 um particle size. The chromatography was performed using the following mobile phases. Mobile phase A (MPA): 0.2% formic acid and 5 mM ammonium formate in deionized water; MPB: see above. The LC method was run in isocratic mode for 4 sequentially running columns using 95% MPB and 5% MPA with flow rate of 1 ml/min and a column temperature of 60° C.
The Triple quad mass spectrometer was run in Negative Ionization mode monitoring the following MRM transitions and using the following parameters:
Electrospray voltage was […], and source temperature was 550° C.

| SMILES | IC50 [nM] |
| --- | --- |
| CNC(=O)c1csc2c(C(F)(F)F)cc(OC3CN(C(=O)OCCOC(F)(F)F)C3)nc12 [Example 256, 2-(Trifluoromethoxy)ethyl 3-((3-(methylcarbamoyl)-7-(trifluoromethyl)thieno[3,2-b]pyridin-5-yl)oxy)azetidine-1-carboxylate] | < 100 |
| CNC(=O)c1csc2c(C(F)(F)F)cc(OC3(C)CN(C(=O)OC(C)(C)C)C3)nc12 [Example 269, tert-Butyl 3-methyl-3-((3-(methylcarbamoyl)-7-(trifluoromethyl)thieno[3,2-b]pyridin-5-yl)oxy)azetidine-1-carboxylate] | 100 to 1000 |
| COC(=O)c1csc2c(C(F)(F)F)cc(C3CCN(C(=O)OC(C)(C)C)CC3)nc12 [Example 274, Methyl 5-(1-(tert-butoxycarbonyl)piperidin-4-yl)-7-(trifluoromethyl)thieno[3,2-b]pyridine-3-carboxylate] | 100 to 1000 |
| CNC(=O)c1csc2c(C(F)(F)F)cc(N3CCC(NC(=O)OCC(C)C)CC3)nc12 [Example 297, Isobutyl (1-(3-(methylcarbamoyl)-7-(trifluoromethyl)thieno[3,2-b]pyridin-5-yl)piperidin-4-yl) carbamate] | < 100 |
| CNC(=O)c1csc2c(C(F)(F)F)cc(N3CC(NC(=O)OC(C)(C)C)C3)nc12 [Example 300, tert-Butyl (1-(3-(methylcarbamoyl)-7-(trifluoromethyl)thieno[3,2-b]pyridin-5-yl)azetidin-3-yl)carbamate] | < 100 |
| CNC(=O)c1csc2c(C(F)(F)F)cc(N3CC4(CN(C(=O)OC5COC5)C4)C3)nc12 [Example 339, Oxetan-3-yl 6-(3-(methylcarbamoyl)-7-(trifluoromethyl)thieno[3,2-b]pyridin-5-yl)-2,6-diazaspiro[3.3]heptane-2-carboxylate] | < 100 |
| CNC(=O)c1csc2c(C(F)(F)F)cc(N3CC4(CN(C(=O)OC(C)CC#N)C4)C3)nc12 (centres unmarked) [Example 350, 1-Cyanopropan-2-yl 6-(3-(methylcarbamoyl)-7-(trifluoromethyl)thieno[3,2-b]pyridin-5-yl)-2,6-diazaspiro[3.3]heptane-2-carboxylate] | < 100 |
| CNC(=O)c1csc2c(C(F)(F)F)cc(N3CCC(OCCN4CCC(F)(F)C4)CC3)nc12 [Example 361, 5-(4-(2-(3,3-Difluoropyrrolidin-1-yl)ethoxy)piperidin-1-yl)-N-methyl-7-(trifluoromethyl)thieno[3,2-b]pyridine-3-carboxamide] | < 100 |
| CNC(=O)c1csc2c(C(F)(F)F)cc(O[C@@H]3CCN(C(=O)OC(C)(C)C)[C@H](C)C3)nc12 [Example 373, tert-Butyl (2R,4R)-2-methyl-4-((3-(methylcarbamoyl)-7-(trifluoromethyl)thieno[3,2-b]pyridin-5-yl)oxy)piperidine-1-carboxylate] | < 100 |
| CNC(=O)c1csc2c(C(F)(F)F)c(C)c(OC3CCN(C(=O)OC(C)(C)C)CC3)nc12 [Example 389, tert-Butyl 4-((6-methyl-3-(methylcarbamoyl)-7-(trifluoromethyl)thieno[3,2-b]pyridin-5-yl)oxy)piperidine-1-carboxylate] | < 100 |
| CNC(=O)c1csc2c(C(F)(F)F)c(C)c(OC3CCN(C(=O)OCCOC(F)(F)F)CC3)nc12 [Example 390, 2-(Trifluoromethoxy)ethyl 4-((6-methyl-3-(methylcarbamoyl)-7-(trifluoromethyl)thieno[3,2-b]pyridin-5-yl)oxy)piperidine-1-carboxylate] | < 100 |
| CNC(=O)c1c(C)sc2c(C(F)(F)F)cc(N3CCN(CC(=O)NC(C)C)CC3)nc12 [Example 408, 5-(4-(2-(Isopropylamino)-2-oxoethyl)piperazin-1-yl)-N,2-dimethyl-7-(trifluoromethyl)thieno[3,2-b]pyridine-3-carboxamide] | 100 to 1000 |

Second part, the compound after the results:

| IC50 [nM] | SMILES |
| --- | --- |
| < 100 | CNC(=O)c1c(C)sc2c(C(F)(F)F)cc(N3CCC(OC(=O)NCC4CC4)CC3)nc12 [Example 415, 1-(2-Methyl-3-(methylcarbamoyl)-7-(trifluoromethyl)thieno[3,2-b]pyridin-5-yl)piperidin-4-yl (cyclopropylmethyl)carbamate] |
| > 1000 | CC(C)NC(=O)c1csc2c(C(F)(F)F)cc(N3CCC(NC4CCC(C(F)(F)F)CC4)C3)nc12 (centres unmarked) [Example 419, N-Isopropyl-7-(trifluoromethyl)-5-(3-((4-(trifluoromethyl)cyclohexyl)amino)pyrrolidin-1-yl)thieno[3,2-b]pyridine-3-carboxamide] |
| > 1000 | CCNC(=O)c1csc2c(C3CC3)cc(N3CCN(CC(=O)NC(C)C)CC3)nc12 [Example 420, 7-Cyclopropyl-N-ethyl-5-(4-(2-(isopropylamino)-2-oxoethyl)piperazin-1-yl)thieno[3,2-b]pyridine-3-carboxamide] |
| 100 to 1000 | CC(C)(C)NC(=O)OC1CCN(c2cc(C(F)(F)F)c3scc(C(=O)N4CCC4)c3n2)CC1 [Example 422, 1-(3-(Azetidine-1-carbonyl)-7-(trifluoromethyl)thieno[3,2-b]pyridin-5-yl)piperidin-4-yl tert-butylcarbamate] |
| < 100 | COC(=O)c1csc2c(C(F)(F)F)cc(N3CCC(OC(=O)NCC4CC4)CC3)nc12 [Example 428, Methyl 5-(4-(((cyclopropylmethyl)carbamoyl)oxy)piperidin-1-yl)-7-(trifluoromethyl)thieno[3,2-b]pyridine-3-carboxylate] |
| < 100 | CNC(=O)c1csc2c(Cl)cc(N3CCC(OC(=O)NCC4CC4)CC3)nc12 [Example 449, 1-(7-Chloro-3-(methylcarbamoyl)thieno[3,2-b]pyridin-5-yl)piperidin-4-yl (cyclopropylmethyl)carbamate] |
| < 100 | CNC(=O)c1csc2c(C(F)F)cc(N3CCC(OC(=O)NC(C)C)CC3)nc12 [Example 452, 1-(7-(Difluoromethyl)-3-(methylcarbamoyl)thieno[3,2-b]pyridin-5-yl)piperidin-4-yl isopropylcarbamate] |
| < 100 | CNC(=O)c1csc2c(C(F)(F)F)cc(N3CCC(OC(=O)NCC4CC4)CC3)nc12 [Example 474, 1-(3-(Methylcarbamoyl)-7-(trifluoromethyl)thieno[3,2-b]pyridin-5-yl)piperidin-4-yl (cyclopropylmethyl)carbamate] |
| < 100 | CNC(=O)c1csc2c(C(F)(F)F)cc(N3CC[C@@H](OC(=O)NC(C)C)[C@H](F)C3)nc12 [Example 495, (3R,4R)-3-Fluoro-1-(3-(methylcarbamoyl)-7-(trifluoromethyl)thieno[3,2-b]pyridin-5-yl)piperidin-4-yl isopropylcarbamate] |
| < 100 | CNC(=O)c1csc2c(C(F)(F)F)cc(N3CCC(NC(=O)OCCC#N)CC3)nc12 [Example 505, 2-Cyanoethyl (1-(3-(methylcarbamoyl)-7-(trifluoromethyl)thieno[3,2-b]pyridin-5-yl)piperidin-4-yl)carbamate] |
| < 100 | CNC(=O)c1csc2c(C(F)(F)F)cc(N3CCC(NC(=O)OCCOC(F)(F)F)CC3)nc12 [Example 520, 2-(Trifluoromethoxy)ethyl (1-(3-(methylcarbamoyl)-7-(trifluoromethyl)thieno[3,2-b]pyridin-5-yl)piperidin-4-yl)carbamate] |
| < 100 | CNC(=O)c1csc2c(C(F)(F)F)cc(N3CCN(Cc4nc(C(C)C)cs4)CC3)nc12 [Example 528, 5-(4-((4-Isopropylthiazol-2-yl)methyl)piperazin-1-yl)-N-methyl-7-(trifluoromethyl)thieno[3,2-b]pyridine-3-carboxamide] |
| > 1000 | CNC(=O)c1csc2c(C(F)(F)F)cc(N3CCN(CC4CN(C(C)C)CCO4)CC3)nc12 (centres unmarked) [Example 552, 5-(4-((4-Isopropylmorpholin-2-yl)methyl)piperazin-1-yl)-N-methyl-7-(trifluoromethyl)thieno[3,2-b]pyridine-3-carboxamide trifluoroacetate] |
| < 100 | CNC(=O)c1csc2c(C(F)(F)F)cc(C3CCN(C(=O)O[C@@H](C)C4CC4)CC3)nc12 [Example 566, (S)-1-Cyclopropylethyl 4-(3-(methylcarbamoyl)-7-(trifluoromethyl)thieno[3,2-b]pyridin-5-yl)piperidine-1-carboxylate] |
